Tests used:
[1] = Stability of Al^18F(IMP485)/IMP487 in human serum at 37° C.; format: in vitro ADME; conditions: four hours
Method: A kit containing 40 nmol of IMP485 or IMP487, 20 nmol AlCl3, 0.1 mg ascorbic acid and 0.1 g trehalose adjusted to pH 3.9 was reconstituted with purified ^18F^− in 200 μL saline and heated 106° C. for 15 min. The reaction mixture was then diluted with 800 μL water and placed on an HLB column. […] The radiolabeled peptide in […] was mixed with 250 μL of fresh human serum in a vial and incubated at 37° C.
The purified radiolabeled peptide in 50 μL 1:1 EtOH/H2O was mixed with 150 μL of human serum and placed in the HPLC autosampler heated to 37° C. and analyzed by RP-HPLC.

[2] = system: nude mice bearing LS174T human colonic cancer xenografts; assay: in vivo
Method: (§1) Mice were necropsied at 1 and 3 h post injection, 7 mice per time point.
(§2) Biodistribution studies were performed in Taconic nude mice bearing subcutaneous LS174T tumor xenografts.
(§3) Mice were necropsied at 1 and 3 h post injection, 6 mice per time point.

[3] = Biodistribution of Al^18F(IMP485) alone or TF2 pretargeted; conditions: Taconic nude, mouse, in vivo, iv
Method: as §1, §2, §3

[4] = Taconic nude, mouse, in vivo, iv, 1 h
[5] = Taconic nude, mouse, in vivo, iv, 3 h
[6] = nude (Taconic), mouse, in vivo, iv, 3 h
[7] = nude, mouse, in vivo, iv, 28 uCi, 3 h

NC(=O)[C@@H](CCCCNC(=O)CNC(=O)CCC(=O)NCCc1c[nH]cn1)NC(=O)[C@@H](Cc1ccc(O)cc1)NC(=O)[C@@H](CCCCNC(=O)CNC(=O)CCC(=O)NCCc1c[nH]cn1)NC(=O)Cc1ccc(CN2CCN(CC(=O)O)CCN(CC(=O)O)CC2)cc1 [Al^18F(IMP485)]
stability in human serum [1]: stable | % ID/g Lg. Int. [2, 4]: 0.10 ± 0.03 % ID/g | % ID/g Liver [2, 4]: 0.24 ± 0.04 % ID/g | % ID/g Muscle [2, 4]: 0.14 ± 0.10 % ID/g | % ID/g Blood [2, 5]: 0.02 ± 0.01 % ID/g | % ID/g Lung [2, 5]: 0.24 ± 0.06 % ID/g | % ID/g Muscle [2, 5]: 0.03 ± 0.01 % ID/g | % ID/g Stomach [2, 5]: 0.03 ± 0.02 % ID/g | % ID/g Sm. Int. ([2]; alone, 1 h post injection): 0.40 ± 0.13 % ID/g | % ID/g Spleen ([2]; alone, 1 h post injection): 0.21 ± 0.18 % ID/g | % ID/g Stomach ([2]; alone, 1 h post injection): 0.13 ± 0.11 % ID/g | % ID/g Tumor ([2]; alone, 1 h post injection): 0.32 ± 0.11 % ID/g | T/NT Blood ([2]; alone, 1 h post injection): 2.0 | T/NT Kidney ([2]; alone, 1 h post injection): 0.1 | T/NT Lg. Int. ([2]; alone, 1 h post injection): 3.9 | T/NT Liver ([2]; alone, 1 h post injection): 1.8 | T/NT Lung ([2]; alone, 1 h post injection): 1.3 | T/NT Muscle ([2]; alone, 1 h post injection): 4.1 | T/NT Scapula ([2]; alone, 1 h post injection): 2.9 | T/NT Sm. Int. ([2]; alone, 1 h post injection): 0.8 | T/NT Spleen ([2]; alone, 1 h post injection): 1.9 | T/NT Stomach ([2]; alone, 1 h post injection): 3.5 | T/NT Tumor ([2]; alone, 1 h post injection): 1.0 | % ID/g Stomach ([2]; alone, 3 h post injection): 0.04 ± 0.02 % ID/g | % ID/g Tumor ([2]; alone, 3 h post injection): 0.09 ± 0.02 % ID/g | T/NT Blood ([2]; alone, 3 h post injection): 21.0 | T/NT Kidney ([2]; alone, 3 h post injection): 0.0 | T/NT Lg. Int. ([2]; alone, 3 h post injection): 0.1 | T/NT Liver ([2]; alone, 3 h post injection): 13.6 | T/NT Lung ([2]; alone, 3 h post injection): 1.3 | T/NT Muscle ([2]; alone, 3 h post injection): 203.9 | T/NT Scapula ([2]; alone, 3 h post injection): 1.2 | T/NT Sm. Int. ([2]; alone, 3 h post injection): 0.7 | T/NT Spleen ([2]; alone, 3 h post injection): 1.4 | T/NT Stomach ([2]; alone, 3 h post injection): 2.5 | T/NT Tumor ([2]; alone, 3 h post injection): 1.0 | T/NT Tumor ([2]; mouse, in vivo): 1 | % ID/g Lg. Int. ([2]; nude (Taconic), mouse, in vivo, iv, 28 uCi, 1 h): 0.08 ± 0.02 % ID/g | % ID/g Lung ([2]; nude (Taconic), mouse, in vivo, iv, 28 uCi, 3 h): 0.07 ± 0.02 % ID/g | % ID/g Scapula [2, 6]: 0.06 ± 0.02 % ID/g | % ID/g Spleen [2, 6]: 0.25 ± 0.11 % ID/g | % ID/g Liver [2, 7]: 0.10 ± 0.05 % ID/g | % ID/g Muscle [2, 7]: 0.01 ± 0.01 % ID/g | % ID/g Blood ([2]; nude, mouse, in vivo, iv, 1 h): 0.28 ± 0.07 % ID/g | % ID/g Stomach ([2]; nude, mouse, in vivo, iv, 1 h): 0.53 ± 1.18 % ID/g | tissue uptake at 3 h [3]: 0.353 %ID/g | tissue uptake at 3 h ([3]; % ID/g Blood): 0.023 %ID/g | tissue uptake at 1 h ([3]; % ID/g Kidney): 3.19 %ID/g | tissue uptake at 1 h ([3]; % ID/g Lg. Int.): 0.104 %ID/g | tissue uptake at 3 h ([3]; % ID/g Lg. Int.): 0.35 ± 0.16 %ID/g | tissue uptake at 1 h ([3]; % ID/g Liver): 0.237 %ID/g | tissue uptake at 3 h ([3]; % ID/g Lung): 0.244 %ID/g | tissue uptake at 1 h ([3]; % ID/g Muscle): 0.136 %ID/g | tissue uptake at 3 h ([3]; % ID/g Muscle): 0.025 %ID/g | tissue uptake at 1 h ([3]; % ID/g Scapula): 0.5 %ID/g | tissue uptake at 3 h ([3]; % ID/g Sm. Int.): 0.071 %ID/g | tissue uptake at 1 h ([3]; % ID/g Spleen): 0.254 %ID/g | tissue uptake at 3 h ([3]; % ID/g Stomach): 0.025 %ID/g | tissue uptake at 1 h ([3]; % ID/g Tumor): 28.1 %ID/g | tissue uptake dose at 3 h ([3]; % ID/org Blood): 0.037 %ID | tissue uptake dose at 1 h ([3]; % ID/org Kidney): 0.444 %ID | tissue uptake dose at 1 h ([3]; % ID/org Lg. Int.): 0.055 %ID | tissue uptake dose at 3 h ([3]; % ID/org Lg. Int.): 0.206 %ID

— patent US20160199524A1, “RADIOSENSITIVITY OF FLUOROPHORES AND USE OF RADIOPROTECTIVE AGENTS FOR DUAL-MODALITY IMAGING” (Immunomedics, Inc., priority 2015, published 2016)
